In one test the target is T1, NK2 receptor (Oryctolagus cuniculus, UniProt P79218).
T1 construct: three smooth muscle preparations were used; from tissue; host or cells: rabbit pulmonary artery without endothelium (isolated smooth muscle)
T1 sequence (P79218 1-384): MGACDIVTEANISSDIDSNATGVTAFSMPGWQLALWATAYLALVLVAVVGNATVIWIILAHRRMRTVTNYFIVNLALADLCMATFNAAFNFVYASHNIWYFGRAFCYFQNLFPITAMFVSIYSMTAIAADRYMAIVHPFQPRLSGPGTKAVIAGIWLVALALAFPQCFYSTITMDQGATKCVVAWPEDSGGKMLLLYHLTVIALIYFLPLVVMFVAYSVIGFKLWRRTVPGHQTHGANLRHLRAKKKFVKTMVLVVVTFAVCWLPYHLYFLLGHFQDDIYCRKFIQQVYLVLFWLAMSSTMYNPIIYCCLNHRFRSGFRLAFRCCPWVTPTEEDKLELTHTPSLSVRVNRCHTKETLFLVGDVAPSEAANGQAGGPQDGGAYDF
The test is described as follows: Bio assay on isolated smooth muscle: rabbit pulmonary artery without endothelium. Format: cell-based. Particulars: antagonistic power, read-out: pA2 NK2 (converted). Here is the method: (§1) In order to evaluate the neurokinin antagonistic potential of the compounds of the invention, three smooth muscle preparations were used. Each of these preparations, described as having a good specificity for one type of receptor for neurokinins, was carried out conforming to the following techniques described in the literature:
rabbit pulmonary artery without endothelium for the study of the NK2 receptor according to D. REGOLI et al. (European J. Pharmacol. 125, 37-44, 1985);
(§2) The antagonistic power of the compounds of the invention is expressed in the form of pA2 as defined by O. ARUNLAKSHANA and H. O. SCHILD (Brit. J. Pharmacol., 14, 48-58, 1959).

The target in another test is T2, NK3 receptor (Rattus norvegicus, UniProt P16177).
T2 construct: three smooth muscle preparations were used; from tissue; host or cells: rat portal vein (isolated smooth muscle)
T2 sequence (P16177 1-452): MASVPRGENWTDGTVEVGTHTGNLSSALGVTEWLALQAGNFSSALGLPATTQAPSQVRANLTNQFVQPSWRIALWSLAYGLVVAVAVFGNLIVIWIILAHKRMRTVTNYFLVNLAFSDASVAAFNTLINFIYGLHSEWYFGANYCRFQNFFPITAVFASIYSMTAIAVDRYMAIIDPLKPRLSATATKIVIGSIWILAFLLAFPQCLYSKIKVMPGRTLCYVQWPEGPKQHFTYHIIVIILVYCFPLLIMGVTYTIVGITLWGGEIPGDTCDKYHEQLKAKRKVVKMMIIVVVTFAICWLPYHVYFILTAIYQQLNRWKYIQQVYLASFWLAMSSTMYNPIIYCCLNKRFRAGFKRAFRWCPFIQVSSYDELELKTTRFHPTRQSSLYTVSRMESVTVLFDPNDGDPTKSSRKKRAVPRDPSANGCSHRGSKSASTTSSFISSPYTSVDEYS
The test is described as follows: Bio assay on isolated smooth muscle: rat portal vein. Type of test: cell-based. Particulars: antagonistic power, read-out: pA2 NK3 (converted). As for the experimental part:
as §1
rat portal vein for the study of the NK3 receptor according to D. REGOLI et al. (European J. Pharmacol. 134, 321-326, 1986).
as §2

For another test, the system named is NK1 receptor. Format: cell-based, rabbit. Particulars: for pA2 NK1: antagonistic power, rabbit vena cava. Here is the method:
as §1
rabbit vena cava for the study of the NK1 receptor according to D. REGOLI et al. (J. Cardiovasc. Pharmacol., in press);
as §2

The next test concerns mouse. Kind of test: Eddy test in the mouse (thermal hyperalgesia, hot plate 55° C.). Format: in vivo. Particulars: dose increasing the reaction time by 50%; i.v. 5 minutes before heating plate; CD1 male mice. Here is the method: This test consists in measuring the reaction time to heat determined by licking of the forepaws in a mouse (CD1 male, Ch. River, 25-30 g) placed on a metal plate heated to 55° C.
The animals were treated intravenously with the compounds of the invention 5 minutes before passing onto the heating plate.
The mean of the reaction times obtained for each batch treated (12 mice per batch) was compared with the mean of the corresponding control batch.

Structures can show the parent of a compound that is named as a salt.

The text below walks through data of US5317014A, “Peptides and pseudopeptides derived from tachykinin” (priority 1991, dated 1994).

In the case of `CN(Cc1ccccc1)C(=O)[C@H](Cc1ccccc1)NC(=O)[C@@H](Cc1cn(C=O)c2ccccc12)NC(=O)C[C@@H]1NC(=O)[C@@H]2C3CCC(CC3)N2C1=O` [Example 1, Cyclo(Abo--Asp)--trp(CHO)--Phe--N(CH3)CH2 C6 H5], the Kb at NK2 receptor and at NK3 receptor was 13.8 µM each time.

For `CN(Cc1ccccc1)C(=O)[C@H](Cc1ccccc1)NC(=O)[C@@H](Cc1cn(C=O)c2ccccc12)NC(=O)C[C@H]1NC(=O)[C@H]2C3CCC(CC3)N2C1=O` [Example 5, Cyclo(abo--asp)--trp(CHO)--Phe--N(CH3)CH2 C6 H5], the Kb is 2 µM at NK2 receptor and 13.8 µM at NK3 receptor.

Regarding `CN(Cc1ccccc1)C(=O)[C@H](Cc1ccccc1)NC(=O)[C@@H](Cc1cn(C=O)c2ccccc12)NC(=O)C[C@H]1NC(=O)[C@@H]2Cc3ccccc3CN2C1=O` [Example 6, Cyclo(Tic--asp)--trp(CHO)--Phe--N(CH3)CH2 C6 H5], the Kb is over 6.76 µM at NK2 receptor and 13.5 µM at NK3 receptor. The “pA2 NK1” value in the test on NK1 receptor is on record as 6.87.

As to `CN(Cc1ccccc1)C(=O)[C@H](Cc1ccccc1)NC(=O)[C@@H](Cc1cn(C=O)c2ccccc12)NC(=O)C[C@@H]1NC(=O)[C@H](Cc2ccccc2)N(C)C1=O` [Example 7, Cyclo(MePhe--Asp)--trp(CHO)--Phe--N(CH3)CH2 C6 H5], the Kb on NK2 receptor and at NK3 receptor was 13.5 µM throughout. In addition, the “pA2 NK1” value with NK1 receptor is recorded as 6.87.

Turning to `CN(Cc1ccccc1)C(=O)[C@H](Cc1ccccc1)NC(=O)[C@@H](Cc1c[nH]c2ccccc12)NC(=O)C[C@@H]1NC(=O)[C@@H]2C3CCC(CC3)N2C1=O` [Example 9, Cyclo(Abo--Asp)--trp--Phe--N(CH3)CH2 C6 H5], the Kb on NK2 receptor is 1 µM.

As to `CN(Cc1ccccc1)C(=O)[C@H](Cc1ccccc1)NC(=O)C[C@@H]1NC(=O)[C@@H]2Cc3ccccc3CN2C1=O` [Example 16, Cyclo(Tic--Asp)--Phe--N(CH3)CH2 C6 H5], the Kb on NK2 receptor and on NK3 receptor was 19.1 µM throughout. For the same compound, in the test on NK1 receptor, the “pA2 NK1” value came out at 6.02.

For the compound `CN(Cc1ccccc1)C(=O)[C@H](Cc1ccccc1)NC(=O)[C@@H]1C2CCC(CC2)N1C(=O)c1c[nH]c2ccccc12` [Example 31, (indol-3-yl) carbonyl--Abo--Phe--N(CH3)CH2 C6 H5], the Kb at NK2 receptor was 13.8 µM; on NK3 receptor, 9.12 µM. Moreover, the “pA2 NK1” value in the test on NK1 receptor was found to be 7.34.

Regarding `CN(Cc1ccccc1)C(=O)[C@H](Cc1ccccc1)NC(=O)[C@@H](Cc1cn(C(=O)CCCCCCN)c2ccccc12)NC(=O)C[C@@H]1NC(=O)[C@@H]2C3CCC(CC3)N2C1=O` [Example 38, Cyclo(Abo--Asp)--trp(CO(CH2)6 NH2, HCl)--Phe--N(CH3)CH2 C6 H5], the “pA2 NK1” value in the test on NK1 receptor amounted to 6.70.

As to `CN1CC[C@]23c4c5ccc(O)c4O[C@H]2[C@@H](O)C=C[C@H]3[C@H]1C5` [morphine], the “Eddy test in the mouse ED50” value with mouse worked out at 0.5 mg/kg i.v.

For “Cyclo(Tic--asp)--.PSI.(CH2 S)--Phe--N(CH3)CH2 C6 H5 [Example 24]”, the “antagonistic activity with respect to NK1 receptors, compared with NK2 and NK3 (in words)” value in the test on NK1 receptor (isolated smooth muscle preparations) was “more particularly the case”.
